# Experimental data as given in US12201640B2, “19-nor C3,3-disubstituted C21-n-pyrazolyl steroids and methods of use thereof” (Sage Therapeutics, Inc., priority 2013, dated 2025).
# Test system: PTZ-treated mice
# Test: Acute PTZ (pentylenetetrazol-induced seizure) assay in mice
# Format: in vivo, mouse
# Settings: latency to tonic seizures
# Protocol: The anticonvulsant effect of test compounds were assessed in the pentylenetetazol-induced seizure assay in mice similar to methods described in Giardina & Gasior (2009) Curr Protoc Pharmacol., Chapter 5. Male CD-1 mice were housed in groups of five under controlled conditions (temperature of 22±2° C. and 12:12 light-dark cycle, lights on at 8:00 am) and water and food were available ad libitum. The mice were housed for 1 week prior to behavioral testing, at which time they weighed 25-35 g. Pentylenetetrazol (PTZ, Sigma) was dissolved in sterile 0.9% saline at a concentration of 12 mg/mL concentration for subcutaneous administration. Test compounds were formulated and administered via oral gavage or intraperitoneal injection at a predetermined time-point (typically 30 or 60 minutes) prior to PTZ injection. All solutions were made fresh and were given in a volume of 10 ml/kg body weight.
# Mice were acclimated to the test room for at least 30 min before compound administration. Mice were randomized into at least four test groups (vehicle and at least three doses of the test compound) with 10 mice per group. […] Following the drug pretreatment time the mice were injected s.c. with PTZ (120 mg/kg). Immediately following the PTZ injection, mice were individually placed into observation chambers (25×15×15 cm) and a three-channel timer was started. Each mouse was continuously observed for 30 min and the following behaviors were recorded by observers blinded to the treatments: 1) latency to clonic convulsions that persist for 3 sec and followed by an absence of righting reflex 2) latency to tonic convulsions, characterized by the rigid extension of all four limbs that exceeded a 90 degree angle with the body 3) latency to death 4) number of clonic and tonic convulsions. Data are presented as mean±S.E.M and one-way analysis of variance with Dunnett's or Bonferroni's post-hoc test was used to detect significant differences in latency and number between the vehicle and dose group. p values<0.05 were regarded as statistically significant.
SMILES,Anticonvulsive Effect Dose (minimal effective anticonvulsant dose) (IP),Anticonvulsive Effect Dose (minimal effective anticonvulsant dose) (PO)
C[C@@]1(O)CC[C@H]2[C@H](CC[C@@H]3[C@@H]2CC[C@]2(C)[C@@H](C(=O)Cn4cccn4)CC[C@@H]32)C1 [SA-13],B (IP) (≥3 mpk),
C[C@@]1(O)CC[C@H]2[C@H](CC[C@@H]3[C@@H]2CC[C@]2(C)[C@@H](C(=O)Cn4cc(C#N)cn4)CC[C@@H]32)C1 [SA-4],,A (PO) (<3 mpk)
